Test results: patent US20150297718A1, “ION[…] OF CATIONIC PRODRUGS FOR TOPICAL TREATMENT OF MUSCU[…] SKIN DISEASES” (priority 2014, published 2015)
Where a name gives a salt, the structure may show the parent alone.

Legend:
[1] = In-vitro side-by-side diffusion cell study, iontophoresis across human epidermis skin; type: in vitro ADME
Source text: The efficiency in anode iontophoresis delivery of KCE and that in cathode iontophoresis delivery of ketoprofen were compared with an in-vitro side-by-side diffusion cell study. […] The human cadaver epidermis skin was sandwiched between the two half cells with stratum corneum face the donor chamber. For anode iontophoresis of KCE, KCE chloride salt solution (26.6 μmol/ml) was placed in the donor cell. For cathode iontophoresis of ketoprofen (Kt), […] solution (26.6 μmol/ml) was placed in the donor cell. Phosphate buffer solution (0.15 M at pH 7.4) was placed in the receiver chamber. Constant current 0.2 mA was applied to the diffusion cell. The amount of drug penetrated through the skin was collected in the receive chamber and analyzed with a HPLC. The anode iontophoresis of the cationic prodrug KCE delivered 4 times more drug across the skin than that delivered by the cathode iontophoresis of ketoprofen (see FIG. 4A) from the in-vitro study.
Anode iontophoresis of the cationic ketoprofen prodrug KCE (26.6 μmol/ml) with the presence of phenylephrine (PE) (4.9 μmol/ml) in solution was evaluated with an in-vitro diffusion cell study across a human epidermis skin.

[2] = Passive penetration across human epidermis skin in side-by-side diffusion cells; settings: no electric current, 6 hours
Source text: The efficiency in anode iontophoresis delivery of KCE and that in cathode iontophoresis delivery of ketoprofen were compared with an in-vitro side-by-side diffusion cell study. […] The human cadaver epidermis skin was sandwiched between the two half cells with stratum corneum face the donor chamber. […] Phosphate buffer solution (0.15 M at pH 7.4) was placed in the receiver chamber. […]

[3] = In vivo rat study of iontophoresis delivery on dorsal back skin: tissue and plasma drug concentrations; settings: for Drug concentration in the skin: delivered drug (prodrug or ketoprofen); for Concentration of ketoprofen converted from the prodrug in the skin: number in bracket
Protocol: (§1) The anode iontophoresis of ketoprofen cationic prodrugs KCE, KME and cathode iontophoresis of ketoprofen were compared with an in vivo rat study for evaluation of drug penetration into deep tissues. […] A prodrug solution was loaded in the cell. A constant current of 0.4 mA/cm^2 for iontophoresis was applied for 6 hours. At the end of the iontophoresis delivery, the rats were euthanized. The skin of the application site (under the glass cell) was washed with water, tape stripped once to remove residue drug on skin, and then dissected with a biopsy punch for the tissue layers: epidermis and dermis layer (depth 0-3 mm), subcutaneous tissue (fat pad) (3-4 mm), shallow muscle layer (4-6 mm), and deep muscle (6-10 mm). The tissues from the contralateral site were dissected with the same method. In addition, the plasma blood samples were obtained right before the experiment (time 0) and each hour during the experiment. The drug concentrations in the tissue and plasma samples were analyzed with a HPLC.
as §1, with “cationic prodrugs and cathode” for “cationic prodrugs KCE, KME and cathode”, “ketoprofen were also compared with” for “ketoprofen were compared with”, “rat study at 0.4 mA/cm^2 for a shorter duration of 2 hours for evaluation” for “rat study for evaluation”, “applied for 2 hours. At” for “applied for 6 hours. At”
as §1, with “cationic prodrugs and cathode” for “cationic prodrugs KCE, KME and cathode”, “ketoprofen were also compared with” for “ketoprofen were compared with”, “rat study at 0.057 mA/cm^2 for a duration of 6 hours for evaluation” for “rat study for evaluation”, “current of 0.057 mA/cm^2 for” for “current of 0.4 mA/cm^2 for”, “with a HPLC” for “with a HPLC.”
KPE is a prodrug of ketoprofen but with two methyl groups on the nitrogen atom, instead of three methyl groups on the nitrogen atom like KCE and KME. KPE can be presented as a hydrochloride salt. […] Anode iontophoresis delivery of KPE in this aqueous solution at 0.4 mA/cm^2 for a shorter duration of 2 hour was also conducted with the in vivo rat study.

melanoma cell (A375) = assay: In vitro cell viability assay on melanoma cell growth; type: cell-based; settings: A375 cells, read-out: 50% inhibition concentration (IC50) on melanoma cell (A375) growth
Source text: The drug concentrations in the skin after the iontophoresis delivery of those prodrugs or their parent drug ketoprofen from different iontophoresis conditions are summarized in Table 2. The high drug concentration in the skin can be used for treatment of skin diseases including skin cancers such as melanoma. […] The ketoprofen concentrations in the skin from the iontophoresis delivery was not higher than its IC50 against the melanoma cell growth, but the KCE and KME concentrations in the skin from the anode iontophoresis delivery were higher than their IC50 against the melanoma cell growth. Thus, the anode iontophoresis of the prodrugs can provide high drug accumulation in the skin, and such high drug accumulation in the skin can be used for skin disease treatment.

[4] = Iontophoresis delivery into hairless rat knee joint: tissue and plasma drug concentrations; type: in vivo; settings: 0.4 mA/cm^2 for 20 min; 0.5-hour and 2-hour time points
Protocol: Hairless rats were anaesthetized with isoflurane. A rubber disk shape applicator with a sponge that can hold 0.5 ml of the drug solution was used and a button Ag/AgCl electrode was used as current driving electrode. The delivery area is about 1.2 cm^2. After drug solution was loaded into the sponge, the applicator was placed on the knee cap skin and applied an electric current at 0.4 mA/cm^2 for 20 min. A return electrode was attached to the upper tail of the rat. After that, the skin was cleaned thoroughly with wet Kim wipes. The tissues (skin, muscle and joint) at the application site knee and also the contralateral site knee were collected at 30 min, 2 hr, 4 hr or 6 hr from the start of iontophoresis delivery. Three animals were used for each time point. Blood samples were also collected at appropriate time points. The tissue and blood samples were stored at −80° C. until further processing.

[5] = system: knee arthritis pain model (monosodium iodoacetate); assay: MIA knee osteoarthritis rat model treated with iontophoresis; type: in vivo; settings: 0.4 mA/cm^2 for 20 min on days 1, 2, 3 after MIA; versus iontophoresis of NaCl
Protocol: A knee arthritis pain model was established by injection of 50 μl of 60 mg/ml monosodium iodoacetate (MIA) into the left hind knee joint of 12 hairless rats, and they were divided into three groups. The knee diameters of both hind knees were measured. The difference in knee diameters between the left knee and right knee was used as the indicator of the swelling (or inflammation) of the left knee. In addition, the weight bearing of each hind limb was also measured with a Linton incapacitance tester. The percentage of the weight bearing by the left leg was used as an indicator of the pain level in the knee. At 1 day, 2 days, 3 days after the injection of MIA, the left knee of the rats in group 1 was treated with iontophoresis of NaCl to the left hind knee at 0.4 mA/cm^2 for 20 min, group 2 treated with iontophoresis of Kt to the left hind knee at 0.4 mA/cm^2 for 20 min, and group 3 treated with iontophoresis of KCE to the left hind knee at 0.4 mA/cm^2 for 20 min. The knee diameter and weight bearing were measured at day 0 before the MIA injection, and also at day 1, 2, and 3 after the MIA injection but before the iontophoresis treatment. They were also measured at day 4, 6, and 10 after the MIA injection.

[6] = Bioconversion of ketoprofen prodrugs in fresh rat plasma
[7] = Bioconversion of ketoprofen prodrugs in fresh human plasma
[8] = iontophoresis 0.057 mA/cm^2 for 6 hrs
[9] = iontophoresis 0.4 mA/cm^2 for 2 hrs
[10] = iontophoresis 0.4 mA/cm^2 for 6 hrs

## CC(C(=O)OCC[N+](C)(C)C)c1cccc(C(=O)c2ccccc2)c1 (stereo not shown) [KCE, Ketoprofen choline ester chloride salt]
[1]; 0.2 mA constant current, 26.6 μmol/ml donor, anode iontophoresis
  Drug delivered across the skin relative to cathode iontophoresis of ketoprofen: 4 times
[1]; KCE 26.6 μmol/ml, PE 4.9 μmol/ml, 0.2 mA
  Amount penetrated across the skin by anode iontophoresis, KCE alone versus KCE with phenylephrine: slightly higher than that with the PE in the solution
[2]
  Passive penetration across human epidermis skin: Almost no KCE chloride was penetrated across the human skin in 6 hours
[3]; 0.057 mA/cm^2 for 6 hours
  Plasma and contralateral tissue drug concentration: initial lower plasma concentration, but reached a plasma concentration similar to that from iontophoresis of Kt at 6 hours
  Tissue drug concentrations / direct penetration at the application site: direct penetration into deeper tissues that is up into the shallow muscles
[3]; 0.4 mA/cm^2 for 2 hours
  Plasma drug concentration: lower than that from iontophoresis of ketoprofen
  Tissue drug concentrations / direct penetration at the application site: direct penetration into deeper tissues up into the deep muscles
[3]; 0.4 mA/cm^2 for 6 hours
  Drug in tissues at the contralateral site: No prodrug was detected in the contralateral tissues
  Plasma drug concentration: much lower than that from the iontophoresis of Kt
  Tissue drug concentrations / direct penetration at the application site: much higher concentration in the drug application site than the Kt concentration in the contralateral site
[3]; [8]
  Drug concentration in the skin: 887 μmol per kilogram of skin
  Concentration of ketoprofen converted from the prodrug in the skin: 905 μmol per kilogram of skin
[3]; [9]
  Drug concentration in the skin: 6719 μmol per kilogram of skin
  Concentration of ketoprofen converted from the prodrug in the skin: 2996 μmol per kilogram of skin
[3]; [10]
  Drug concentration in the skin: 25869 μmol per kilogram of skin
  Concentration of ketoprofen converted from the prodrug in the skin: 13527 μmol per kilogram of skin
Melanoma cell (A375)
  IC50: 2650 µM
[4]
  Drug concentrations in the knee joint and surrounding muscle tissues: higher drug concentrations in the knee joint and also surrounding muscle tissues than those from the cathode iontophoresis of Kt
[5]
  Knee swelling (knee diameter difference left vs right): significant reduction of the knee swelling
  Weight bearing of the left leg (pain indicator): significant improvement in the weight bearing of the left leg
[6]
  Bioconversion (half life) in rat plasma: 8.6 min
[7]
  Bioconversion (half life) in human plasma: <2 min
